Experimental data as given in paper PMC3711795 (Nature, 2012).

Tests used:
[1] = target: T1, HSC / FNT3 (hydrosulfide ion channel) (Clostridioides difficile, UniProt Q186B7); details: 450 µM 14C-formate; pH 8.0; competing permeant anion, competitive
T1 sequence (Q186B7 2-258): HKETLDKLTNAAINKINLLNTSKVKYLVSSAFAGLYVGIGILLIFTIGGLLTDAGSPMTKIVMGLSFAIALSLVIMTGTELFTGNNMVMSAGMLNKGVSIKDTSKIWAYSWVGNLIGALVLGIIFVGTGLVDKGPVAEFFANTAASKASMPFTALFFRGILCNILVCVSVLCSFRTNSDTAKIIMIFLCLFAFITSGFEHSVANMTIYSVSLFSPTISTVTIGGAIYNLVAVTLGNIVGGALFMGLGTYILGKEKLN

[2] = target: hydrosulfide ion channel (HSC) from Clostridium difficile (Clostridium difficile strain 630); assay: crystal structure

stoichiometry N [2] | Compound | % inhibition at 15 mM [1] [%]
– | O=NO [nitrite] | 70
– | S [HS^−] | 90
5 | hydrosulfide ion channel (HSC) from Clostridium difficile (natural protein) | –
